The subject of series [1] is Human KB cells. The experiment in a line: Cytotoxicity, MTT method. Format: cell-based. The following applies: 72 h, 3 days at 37° C., read-out: IC50 (concentration at which the number of cells was decreased by 50%). As to the method: Human KB cells were spread in a proportion of 1×10^5 cells/well on a 96-well plate. After a compound according to the present invention was dissolved in purified water, the solution was diluted to various concentrations with an RPMI 1640 medium and then added to each well, thereby conducting culture. After incubating at 37° C. for 3 days in a 5% CO2-incubator, the number of cells was counted by an MTT method.
The cytotoxicity of each of the compounds tested was expressed by a concentration (IC50) of the compound at which the number of cells was decreased by 50% compared with a control.
(In general: Tetrazolium assays rely on reduction of a dye to a coloured formazan, in cell work by metabolically active cells.)

Series [2] deals with Murine Leukemia P388 cells. Put plainly: Survival effect against murine leukemia P388. In kind it is in vivo. The following applies: P388 implanted i.p. in female CDFI mice. As to the method:
Survival effect against murine leukemia P388:
Murine Leukemia P388 cells (1×10^6 cells) were implanted intraperitoneally in three female CDFI mice (aged 8 weeks) per group. On the day subsequent to the implantation and the fifth day, test compounds at varied concentrations were administered intraperitoneally to their corresponding groups of mice. Average survival days of each group were determined to find a survival rate (T/C, %) in accordance with the following equation.

[3] abbreviates: dose 1 mg/kg i.p. on day 1 and day 5.
Setting [4] is: dose 3 mg/kg i.p. on day 1 and day 5.

Usually melting point stands for the temperature of the solid-liquid transition.

≈ marks a conversion by molar mass, not a printed value. Structures can show the parent of a compound that is named as a salt.

For `CC#C[C@@]1(O)[C@@H](CO)O[C@@H](n2ccc(N)nc2=O)[C@@H]1O` (as salt: salt) [Compound 18, 1-(3-C-(1-propynyl)-β-D-ribofuranosyl)cytosine], the melting point lay within 162 to 165 °C. As to `CCC#C[C@@]1(O)[C@@H](CO)O[C@@H](n2ccc(N)nc2=O)[C@@H]1O` (as salt: salt) [Compound 20, 1-(3-C-(1-butynyl)-β-D-ribofuranosyl) cytosine], the melting point fell in the range of 181 to 184 °C. In the case of `CC[C@@]1(O)[C@@H](CO)O[C@@H](n2ccc(=O)[nH]c2=O)[C@@H]1O` [Comparative compound 1, 1-(3-C-ethyl-β-D-ribofuranosyl)uracil, reference compound], the IC50 in series [1] is over 100000 ng/mL. In the case of `C#C[C@@]1(O)[C@@H](CO)O[C@@H](n2ccc(N)nc2=O)[C@@H]1O` [Compound 2, 1-(3-C-ethynyl-β-D-ribofuranosyl) cytosine], the “survival rate T/C (%)” value in series [2] (setting [3]) was determined as 211%; in series [2] (setting [4]), 206%. In the case of `C#C[C@@]1(O)[C@@H](CO)O[C@@H](n2cc(F)c(N)nc2=O)[C@@H]1O` [Compound 4, 1-(3-C-ethynyl-β-D-ribofuranosyl)-5-fluorocytosine], the melting point was 242 °C (dec.). With `C#C[C@@]1(O)[C@@H](CO)O[C@@H](n2ccc(=O)[nH]c2=O)[C@@H]1O` [Compound 7, 1-(3-C-ethynyl-β-D-ribofuranosyl) uracil], in series [1], the IC50 amounted to 7.7 ng/mL (≈ 0.0287 µM). Besides, the “survival rate T/C (%)” value in series [2] (setting [3]) came out at 144%; in series [2] (setting [4]), 150%. For the molecule `C#C[C@@]1(O)[C@@H](CO)O[C@@H](n2c(=O)cc[nH]c2=O)[C@@H]1O` [Compound 8, 3-(3-C-ethynyl-β-D-ribofuranosyl) uracil], the melting point is 255 °C (dec.). On the same count and under the same terms, the figure for `C#C[C@@]1(O)[C@@H](CO)O[C@@H](n2cc(C)c(=O)[nH]c2=O)[C@@H]1O` [Compound 12, 1-(3-C-ethynyl-β-D-ribofuranosyl) thymine] is 113 to 118 °C; for `C#C[C@@]1(O)[C@@H](CO)O[C@@H](n2cnc3c(=O)[nH]c(N)nc32)[C@@H]1O` [Compound 16, 9-(3-C-ethynyl-β-D-ribofuranosyl) guanine] it is 225 °C (dec.); for `C=C[C@@]1(O)[C@@H](CO)O[C@@H](n2ccc(N)nc2=O)[C@@H]1O` [Compound 22, 1-(3-C-ethenyl-β-D-ribofuranosyl) cytosine] it is 194 to 197 °C. As for `CC#C[C@@]1(O)[C@@H](CO)O[C@@H](n2ccc(=O)[nH]c2=O)[C@@H]1O` [Compound 24, 1-(3-C-(1-propynyl)-β-D-ribofuranosyl)uracil], the melting point was in the range of 211 to 213 °C. Consider `CCC#C[C@@]1(O)[C@@H](CO)O[C@@H](n2ccc(=O)[nH]c2=O)[C@@H]1O` [Compound 26, 1-(3-C-(1-butynyl)-β-D-ribofuranosyl) uracil], for which the melting point was in the range of 139 to 142 °C. Same read-out and setting: the figure for `C=C[C@@]1(O)[C@@H](CO)O[C@@H](n2ccc(=O)[nH]c2=O)[C@@H]1O` [Compound 28, 1-(3-C-ethenyl-β-D-ribofuranosyl) uracil] is 219 to 222 °C.

`C[Si](C)(C)C#C[C@@]1(O)[C@@H](CO)O[C@@H](n2ccc(=O)[nH]c2=O)[C@@H]1O` [Compound 35, 1-(3-C-trimethylsilylethynyl-β-D-ribofuranosyl)uracil] gave a melting point of 175 to 177 °C. In series [1], the IC50 was found to be 7.8 ng/mL (≈ 0.0229 µM).

Values taken from patent USRE38090E1, “3′-substituted nucleoside derivative” (Taiho Pharmaceutical Co., Ltd., priority 1994, dated 2003).
